Experimental data reported in ChEMBL document CHEMBL1909046, “DrugMatrix in vitro pharmacology data”.

What was measured:
Glucocorticoid receptor = target: T1, Glucocorticoid receptor (Homo sapiens, UniProt P04150); settings: hela s3; note: in other assays of this panel Not Active means under 50% inhibition at 10 µM
T1 sequence (P04150 whole entry): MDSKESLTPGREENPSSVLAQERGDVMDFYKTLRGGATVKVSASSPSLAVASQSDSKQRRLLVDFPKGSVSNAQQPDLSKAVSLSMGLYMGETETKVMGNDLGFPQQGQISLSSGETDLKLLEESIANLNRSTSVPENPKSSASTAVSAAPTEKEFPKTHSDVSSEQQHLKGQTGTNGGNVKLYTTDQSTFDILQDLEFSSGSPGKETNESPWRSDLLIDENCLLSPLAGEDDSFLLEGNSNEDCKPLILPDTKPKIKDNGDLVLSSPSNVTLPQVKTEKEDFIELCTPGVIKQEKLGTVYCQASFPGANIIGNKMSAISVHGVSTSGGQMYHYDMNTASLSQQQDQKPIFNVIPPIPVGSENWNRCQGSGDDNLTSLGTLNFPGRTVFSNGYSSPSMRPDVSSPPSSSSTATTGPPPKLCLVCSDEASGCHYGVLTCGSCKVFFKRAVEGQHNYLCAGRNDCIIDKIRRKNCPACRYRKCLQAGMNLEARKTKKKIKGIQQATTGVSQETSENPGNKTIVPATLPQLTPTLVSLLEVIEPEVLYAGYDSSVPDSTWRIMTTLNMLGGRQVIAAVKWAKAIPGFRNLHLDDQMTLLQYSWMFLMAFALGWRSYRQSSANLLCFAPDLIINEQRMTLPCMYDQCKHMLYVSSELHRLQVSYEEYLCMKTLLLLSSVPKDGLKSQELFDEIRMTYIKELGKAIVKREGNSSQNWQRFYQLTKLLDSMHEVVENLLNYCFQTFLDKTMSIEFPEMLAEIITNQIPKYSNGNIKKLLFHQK

[1] = target: cGMP-specific 3',5'-cyclic phosphodiesterase (Homo sapiens, UniProt O76074); test: DRUGMATRIX: Phosphodiesterase PDE5 enzyme inhibition (substrate: [3H]cGMP + cGMP); type: tissue-based, Platelet; settings: platelet; Not Active = under 50% inhibition at 10 µM
[2] = target: T2, Type-2 angiotensin II receptor (Homo sapiens, UniProt P50052); type: cell-based; settings: cho-k1; note: in other assays of this panel Not Active means under 50% inhibition at 10 µM
T2 sequence (P50052 whole entry): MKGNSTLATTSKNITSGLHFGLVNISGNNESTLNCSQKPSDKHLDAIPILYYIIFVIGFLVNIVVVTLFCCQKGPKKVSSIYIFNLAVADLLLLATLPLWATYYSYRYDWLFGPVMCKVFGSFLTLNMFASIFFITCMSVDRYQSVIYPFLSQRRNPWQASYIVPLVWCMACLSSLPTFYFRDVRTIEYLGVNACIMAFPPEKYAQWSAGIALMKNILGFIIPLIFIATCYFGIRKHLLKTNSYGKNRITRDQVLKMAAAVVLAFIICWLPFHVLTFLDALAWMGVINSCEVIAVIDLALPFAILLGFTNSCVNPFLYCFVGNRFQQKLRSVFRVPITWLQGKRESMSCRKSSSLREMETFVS

[3] = target: T3, 5-hydroxytryptamine receptor 1A (Rattus norvegicus, UniProt P19327); type: cell membranes, CHO-K1, Membrane; settings: for Ki: read-out: Ki; for all read-outs here: in other assays of this panel Not Active means under 50% inhibition at 10 µM
T3 sequence (P19327 whole entry): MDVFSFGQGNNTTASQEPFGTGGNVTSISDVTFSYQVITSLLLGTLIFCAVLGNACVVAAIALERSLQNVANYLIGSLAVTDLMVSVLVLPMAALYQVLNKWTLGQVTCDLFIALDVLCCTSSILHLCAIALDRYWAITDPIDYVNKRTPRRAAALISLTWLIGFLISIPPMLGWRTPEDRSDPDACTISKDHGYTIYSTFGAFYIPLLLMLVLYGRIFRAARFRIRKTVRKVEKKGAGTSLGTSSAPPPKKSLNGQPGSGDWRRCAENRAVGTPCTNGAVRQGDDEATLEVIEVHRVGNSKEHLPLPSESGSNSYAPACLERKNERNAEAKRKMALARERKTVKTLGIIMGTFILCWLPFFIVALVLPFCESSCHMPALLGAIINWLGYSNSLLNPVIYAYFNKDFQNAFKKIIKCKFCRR

[4] = target: T4, C-C chemokine receptor type 4 (Homo sapiens, UniProt P51679); type: cell membranes, Membrane; settings: chem-1; note: in other assays of this panel Not Active means under 50% inhibition at 10 µM
T4 sequence (P51679 whole entry): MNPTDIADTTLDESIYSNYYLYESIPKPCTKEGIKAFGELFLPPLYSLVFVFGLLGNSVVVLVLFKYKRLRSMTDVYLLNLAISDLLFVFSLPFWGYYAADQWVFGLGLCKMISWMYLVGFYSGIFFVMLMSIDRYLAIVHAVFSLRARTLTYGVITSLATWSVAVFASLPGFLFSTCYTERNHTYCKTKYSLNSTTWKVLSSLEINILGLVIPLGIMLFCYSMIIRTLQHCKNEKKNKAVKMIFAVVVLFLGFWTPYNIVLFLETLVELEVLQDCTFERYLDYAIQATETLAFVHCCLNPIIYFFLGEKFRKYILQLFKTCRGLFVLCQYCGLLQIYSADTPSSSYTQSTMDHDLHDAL

[5] = DRUGMATRIX: Glutamate, AMPA radioligand binding (ligand: [3H] AMPA); type: cell membranes, Rattus norvegicus, Wistar, Cerebral cortex, Membrane; settings: Not Active = under 50% inhibition at 10 µM
[6] = DRUGMATRIX: Atrial Natriuretic Factor (ANF) radioligand binding (ligand: [125I] ANF (rat)); type: cell membranes, Cavia porcellus, Dunkin-Hartley, Adrenal gland, Membrane; settings: Not Active = under 50% inhibition at 10 µM

SMILES | IC50 (Glucocorticoid receptor) | IC50 [1] | IC50 [2] | IC50 ([3]; cho-k1) | IC50 [4] | IC50 [5] | Ki [5] | IC50 [6] | Ki [6] | IC50 ([3]; read-out: IC50) [nM] | Ki [3] [nM]
CC[C@H](C)[C@H]1O[C@]2(C=C[C@@H]1C)C[C@@H]1C[C@@H](C/C=C(\C)[C@@H](O[C@H]3C[C@H](OC)[C@@H](O[C@H]4C[C@H](OC)[C@@H](O)[C@H](C)O4)[C@H](C)O3)[C@@H](C)/C=C/C=C3\CO[C@@H]4[C@H](O)C(C)=C[C@@H](C(=O)O1)[C@]34O)O2.CO[C@H]1C[C@H](O[C@H]2[C@H](C)O[C@@H](O[C@@H]3/C(C)=C/C[C@@H]4C[C@@H](C[C@]5(C=C[C@H](C)[C@@H](C(C)C)O5)O4)OC(=O)[C@@H]4C=C(C)[C@@H](O)[C@H]5OC/C(=C\C=C\[C@@H]3C)[C@]54O)C[C@@H]2OC)O[C@@H](C)[C@@H]1O [ABAMECTIN] | Not Active | Not Active | Not Active | Not Active | Not Active | Not Active | Not Active | Not Active | Not Active | – | –
NCCCC(O)(P(=O)(O)O)P(=O)(O)O [ALENDRONIC ACID] | Not Active | Not Active | Not Active | Not Active | Not Active | Not Active | Not Active | Not Active | Not Active | – | –
Cc1nnc2n1-c1ccc(Cl)cc1C(c1ccccc1)=NC2 [ALPRAZOLAM] | Not Active | Not Active | Not Active | Not Active | Not Active | Not Active | Not Active | Not Active | Not Active | – | –
CC1(C)S[C@@H]2[C@H](NC(=O)[C@H](N)c3ccccc3)C(=O)N2[C@H]1C(=O)O [AMPICILLIN] | Not Active | Not Active | Not Active | Not Active | Not Active | Not Active | Not Active | Not Active | Not Active | – | –
COc1ccc(C2C(=O)c3ccccc3C2=O)cc1 [ANISINDIONE] | Not Active | Not Active | Not Active | Not Active | Not Active | Not Active | Not Active | Not Active | Not Active | – | –
O=C1O[C@H]([C@@H](O)CO)C(O)=C1O [ASCORBIC ACID] | Not Active | Not Active | Not Active | Not Active | Not Active | Not Active | Not Active | Not Active | Not Active | – | –
CN1[C@@H]2CC[C@H]1C[C@@H](OC(=O)C(CO)c1ccccc1)C2 (stereo not given in full) [ATROPINE] | Not Active | Not Active | Not Active | Not Active | Not Active | Not Active | Not Active | Not Active | Not Active | – | –
CC(C(=O)O)c1ccc2oc(-c3ccc(Cl)cc3)nc2c1 (stereo not given) [BENOXAPROFEN] | Not Active | Not Active | Not Active | Not Active | Not Active | Not Active | Not Active | Not Active | Not Active | – | –
COc1ccc2cc3[n+](cc2c1OC)CCc1cc2c(cc1-3)OCO2.[Cl-] [BERBERINE CHLORIDE] | Not Active | Not Active | Not Active | Not Active | Not Active | Not Active | Not Active | Not Active | Not Active | – | –
O=C(O)CCNC(=O)c1ccccc1 [BETAMIPRON] | Not Active | Not Active | Not Active | Not Active | Not Active | Not Active | Not Active | Not Active | Not Active | – | –
Cc1cc2c(OCC(CNC(C)(C)C)OC(=O)c3ccccc3)cccc2[nH]1 (stereo not given) [BOPINDOLOL] | Not Active | Not Active | Not Active | – | Not Active | Not Active | Not Active | Not Active | Not Active | 267 | 153
Brc1c(NC2=NCCN2)ccc2nccnc12 [BRIMONIDINE] | Not Active | Not Active | Not Active | – | Not Active | Not Active | Not Active | Not Active | Not Active | 2550 | 1460
CN(C)[C@@H]1C(O)=C(C(N)=O)C(=O)[C@@]2(O)C(O)=C3C(=O)c4c(O)ccc(Cl)c4[C@@](C)(O)[C@H]3C[C@@H]12 [CHLORTETRACYCLINE] | Not Active | Not Active | Not Active | Not Active | Not Active | Not Active | Not Active | Not Active | Not Active | – | –
COc1cc(N)c(Cl)cc1C(=O)NC1CCN(CCCOc2ccc(F)cc2)CC1OC (stereo not given) [CISAPRIDE] | Not Active | Not Active | Not Active | – | Not Active | Not Active | Not Active | Not Active | Not Active | 2830 | 1620
O=C1CN=C(c2ccccc2Cl)c2cc([N+](=O)[O-])ccc2N1 [CLONAZEPAM] | Not Active | Not Active | Not Active | Not Active | Not Active | Not Active | Not Active | Not Active | Not Active | – | –
Nc1ccn([C@@H]2O[C@H](CO)[C@@H](O)[C@@H]2O)c(=O)n1 [CYTARABINE] | Not Active | Not Active | Not Active | Not Active | Not Active | Not Active | Not Active | Not Active | Not Active | – | –
CN(C)CC[C@@H](c1ccc(Cl)cc1)c1ccccn1 [DEXCHLORPHENIRAMINE] | Not Active | Not Active | Not Active | Not Active | Not Active | Not Active | Not Active | Not Active | Not Active | – | –
C[C@@H]1CC[C@@]2(OC1)O[C@H]1[C@@H](O)[C@H]3[C@@H]4CC[C@H]5C[C@@H](O[C@@H]6O[C@H](CO)[C@H](O[C@@H]7O[C@H](CO)C(O)[C@H](O[C@@H]8OC[C@@H](O)[C@H](O)[C@H]8O)[C@H]7O[C@@H]7O[C@H](CO)[C@H](O)[C@H](O[C@@H]8O[C@H](CO)[C@@H](O)[C@H](O)[C@H]8O)[C@H]7O)[C@H](O)[C@H]6O)[C@H](O)C[C@]5(C)[C@H]4CC[C@]3(C)[C@H]1[C@@H]2C (stereo not given in full) [DIGITONIN] | Not Active | Not Active | Not Active | Not Active | Not Active | Not Active | Not Active | Not Active | Not Active | – | –
